Assays:
[1] = tested on: TelQD31 (DNA, G4) GGGCGCGAAGCATTCGCGGGGTTAGGGTGGG; test: NMR titration; conditions: 120 mM K+; 120 mM K+ buffer, pH 7.0; binding at quadruplex-duplex junction
[2] = tested on: TelQD (DNA, G4) GGGCGCGAAGCATTCGCGGGGTTAGGGTTAGGG; test: NMR solution structure; conditions: 120 mM K+; 20 mM potassium phosphate, 100 mM KCl, pH 7.0, 25 °C; refolds to (3+1) hybrid-2
[3] = tested on: 32BrTelQD (DNA, G4, 8-bromo-2'-deoxyguanosine at 32) GGGCGCGAAGCATTCGCGGGGTTAGGGTTAGGG; test: NMR titration and induced CD; conditions: 120 mM K+; 120 mM K+ buffer, pH 7.0; incomplete refolding, polymorphic complex

Measured: binding

C[n+]1cc(NC(=O)c2ccc3ccc4ccc(C(=O)Nc5cc6ccccc6[n+](C)c5)nc4c3n2)cc2ccccc21
yes: [1] | [2] | [3]
